Measurements from US10370718B2, “Use of HLA genetic status to assess or select treatment of celiac disease” (ImmusanT, Inc., priority 2014, dated 2019).
Square brackets hold non-standard residues; d marks the D form. pGlu = O=C1CC[C@@H](C(=O)O)N1

System: circulating cytokines
Experiment: Circulating cytokines/chemokines in plasma after dosing (MAGPIX multiplex platform)
Assay type: in vivo, human
Conditions: dose of 150 micrograms; same dose in both genotype groups
Description: 3 cohorts of subjects with HLA-DQ2.5+(heterozygous or homozygous) biopsy-proven Celiac disease on a gluten-free diet for at least 1 year were included in the study. The first cohort (Cohort 1) contained 12 subjects who were dosed with 150 mcg of a gluten peptide composition (an equimolar composition in sodium chloride 0.9% USP of 3 peptides: ELQPFPQPELPYPQPQ (SEQ ID NO: 9), EQPFPQPEQPFPWQP (SEQ ID NO: 10), and EPEQPIPEQPQPYPQQ (SEQ ID NO: 11), each peptide comprising an N-terminal pyroglutamate and C-terminal amidated amino acid) or a placebo (sodium chloride 0.9% USP) intradermally, twice a week for 8 weeks total. The second cohort (Cohort 2) contained 13 subjects who were dosed with 300 mcg of the gluten peptide composition or the placebo intradermally, twice a week for 8 weeks total. […] Both Cohorts 1 and 2 received an oral gluten challenge and were assessed for gamma-interferon (gIFN) release and then returned to baseline prior to starting the treatment regimen. […]
The progress of each subject before, during and after the trial was assessed using multiple tests including serology (tTG-IgA, DGP-IgG, DGP-IgA, and EMA-IgA), histology, and IFNg whole blood release assay, and cytokine/chemokines in plasma (measured by MAGPIX® multiplex platform). Plasma cytokines and chemokines were measured at several timepoints pre and post first and last dose. […]

## gluten peptide composition: equimolar composition in sodium chloride 0.9% USP of 3 peptides (SEQ ID NO: 9, 10, 11), each with N-terminal pyroglutamate and C-terminal amidated amino acid (chain 1 [pGlu]LQPFPQPELPYPQPQ-NH2; chain 2 [pGlu]QPFPQPEQPFPWQP-NH2; chain 3 [pGlu]PEQPIPEQPQPYPQQ-NH2)
  levels of circulating cytokines in response to administration, HLA-DQ2.5 homozygous subjects compared to subjects with other genotypes: generally increased levels of circulating cytokines
